According to ChEMBL document CHEMBL1125188, “Synthesis and evaluation of stilbene and dihydrostilbene derivatives as potential anticancer agents that inhibit tubulin polymerization” (J Med Chem, 1991):

Legend:
Type in all cases: functional
Settings in all cases: Homo sapiens, read-out: ED50 (the source's name)
[1] = tested on: A549; assay: Cytotoxic concentration required to inhibit 50% cell growth in A-549 lung carcinoma cell lines
[2] = tested on: SK-MEL-5; assay: Cytotoxic concentration required to inhibit 50% cell growth in SKMEL-5 melanoma cell lines
[3] = tested on: MCF7; assay: Cytotoxic concentration required to inhibit 50% cell growth in MCF-7 breast carcinoma cell lines
[4] = tested on: HT-29; assay: Cytotoxic concentration required to inhibit 50% cell growth in HT-29 colon adenocarcinoma cell lines
[5] = tested on: MLM; assay: Cytotoxic concentration required to inhibit 50% cell growth in MLM melanoma cell lines

## COc1cc(/C=C\c2ccncc2)cc(OC)c1OC
[1]
  EC50: 14.2 µM
[2]
  EC50: 14.4 µM
[3]
  EC50: 17 µM
[4]
  EC50: 12.9 µM
[5]
  EC50: > 25 µM

## COc1ccccc1/C=C\c1cc(OC)c(OC)c(OC)c1
[1]
  EC50: 1.1 µM
[2]
  EC50: 1.2 µM
[3]
  EC50: 1.3 µM
[4]
  EC50: 0.87 µM
[5]
  EC50: 8.6 µM

## COc1cc(CCc2ccc(O)cc2)cc(OC)c1OC
[1]
  EC50: > 25 µM
[2]
  EC50: > 25 µM
[3]
  EC50: > 25 µM
[4]
  EC50: > 25 µM
[5]
  EC50: > 25 µM

## COc1cc(OC)c(/C=C/c2ccccc2)c(OC)c1
[1]
  EC50: > 25 µM
[2]
  EC50: > 25 µM
[3]
  EC50: > 25 µM
[4]
  EC50: > 25 µM
[5]
  EC50: > 25 µM

## COc1cc(CCc2ccncc2)cc(OC)c1OC
[1]
  EC50: > 25 µM
[2]
  EC50: > 25 µM
[3]
  EC50: > 25 µM
[4]
  EC50: > 25 µM
[5]
  EC50: > 25 µM

## COc1ccccc1CCc1cc(OC)c(OC)c(OC)c1
[1]
  EC50: 13.5 µM
[2]
  EC50: 20 µM
[3]
  EC50: 11.8 µM
[4]
  EC50: > 25 µM
[5]
  EC50: > 25 µM

## COc1ccc(/C=C/c2ccccc2)c(OC)c1OC
[1]
  EC50: > 25 µM
[2]
  EC50: > 25 µM
[3]
  EC50: > 25 µM
[4]
  EC50: > 25 µM
[5]
  EC50: > 25 µM

## COc1cc(NC(=O)c2cc(OC)c(OC)c(OC)c2)cc(OC)c1OC
[1]
  EC50: > 25 µM
[2]
  EC50: > 25 µM
[3]
  EC50: > 25 µM
[4]
  EC50: > 25 µM
[5]
  EC50: > 25 µM

## COc1cc(/C=C/c2ccccn2)cc(OC)c1OC
[1]
  EC50: > 25 µM
[2]
  EC50: > 25 µM
[3]
  EC50: > 25 µM
[4]
  EC50: > 25 µM
[5]
  EC50: > 25 µM

## COc1cc(/C=C/c2ccncc2)cc(OC)c1OC
[1]
  EC50: > 25 µM
[2]
  EC50: > 25 µM
[3]
  EC50: > 25 µM
[4]
  EC50: > 25 µM
[5]
  EC50: > 25 µM

## COc1cc(/C=C/c2ccc(Cl)cc2)cc(OC)c1OC
[1]
  EC50: > 25 µM
[2]
  EC50: > 25 µM
[3]
  EC50: > 25 µM
[4]
  EC50: > 25 µM
[5]
  EC50: > 25 µM

## COc1cc(CCc2ccc(OC)c(OC)c2OC)cc(OC)c1OC
[1]
  EC50: > 25 µM
[2]
  EC50: > 25 µM
[3]
  EC50: > 25 µM
[4]
  EC50: > 25 µM
[5]
  EC50: > 25 µM

## COc1cc(/C=C\c2ccc(O[Si](C)(C)C(C)(C)C)cc2)cc(OC)c1OC
[1]
  EC50: 11 µM
[2]
  EC50: 7.59 µM
[3]
  EC50: 7.29 µM
[4]
  EC50: 10.6 µM
[5]
  EC50: 17.2 µM

## COc1cc(CCc2ccccc2)cc(OC)c1OC
[1]
  EC50: > 25 µM
[2]
  EC50: > 25 µM
[3]
  EC50: > 25 µM
[4]
  EC50: > 25 µM
[5]
  EC50: > 25 µM

## COc1cc(OC)c(OC)cc1/C=C/c1ccccc1
[1]
  EC50: > 25 µM
[2]
  EC50: > 25 µM
[3]
  EC50: 8.5 µM
[4]
  EC50: > 25 µM
[5]
  EC50: > 25 µM

## COc1ccc(/C=C\c2ccc(OC)c(OC)c2OC)cc1
[1]
  EC50: 0.97 µM
[2]
  EC50: 1.1 µM
[3]
  EC50: 0.23 µM
[4]
  EC50: 1 µM
[5]
  EC50: 10.9 µM

## COc1cc(/C=C\c2ccc(O)cc2)cc(OC)c1OC
[1]
  EC50: 12.7 µM
[2]
  EC50: 2.27 µM
[3]
  EC50: 5.7 µM
[4]
  EC50: 1.75 µM
[5]
  EC50: 12.6 µM

## COc1cccc(CCc2cc(OC)c(OC)c(OC)c2)c1
[1]
  EC50: 11.7 µM
[2]
  EC50: 9.2 µM
[3]
  EC50: 12.4 µM
[4]
  EC50: 7.6 µM
[5]
  EC50: > 25 µM

## COc1ccc(CCc2ccccc2)cc1OC
[1]
  EC50: > 25 µM
[2]
  EC50: > 25 µM
[3]
  EC50: > 25 µM
[4]
  EC50: > 25 µM
[5]
  EC50: > 25 µM

## COc1cc(OC)c(OC)cc1/C=C/c1cc(OC)c(OC)c(OC)c1
[1]
  EC50: > 25 µM
[2]
  EC50: > 25 µM
[3]
  EC50: > 25 µM
[4]
  EC50: > 25 µM
[5]
  EC50: > 25 µM

## COc1cc(CCc2cc(OC)c(OC)c(OC)c2)cc(OC)c1
[1]
  EC50: > 25 µM
[2]
  EC50: > 25 µM
[3]
  EC50: > 25 µM
[4]
  EC50: > 25 µM
[5]
  EC50: > 25 µM

## COc1ccc(NC(=O)c2cc(OC)cc(OC)c2)cc1
[1]
  EC50: 9.02 µM
[2]
  EC50: 11.9 µM
[3]
  EC50: 5.47 µM
[4]
  EC50: 14.5 µM
[5]
  EC50: > 25 µM

## COc1ccc(/C=C\c2cc(OC)c(OC)c(OC)c2)cc1O [COMBRETASTATIN A4]
[3]
  EC50: 3.8e-06 µM
[4]
  EC50: 1.2e-05 µM
[5]
  EC50: 1.4e-05 µM
